# Assays:
# smallflower flatsedge = assay: Test B flood test smallflower flatsedge; format: in vivo, Cyperus difformis
# Method: (§1) At the same time, these crop and weed species were also treated with postemergence applications of test chemicals formulated in the same manner. Plants ranged in height from 2 to 18 cm (1- to 4-leaf stage) for postemergence treatments. Plant species in the flood test consisted of rice (Oryza sativa), smallflower flatsedge (Cyperus difformis), duck salad (Heteranthera limosa) and bamyardgrass (Echinochloa crus-galli) grown to the 2-leaf stage for testing. Treated plants and controls were maintained in a greenhouse for twelve to sixteen days, after which all species were compared to controls and visually evaluated. Plant response ratings, summarized in Table B, are based on a scale of 0 to 10 where 0 is no effect and 10 is complete control. A dash (−) response means no test result.
# bamyardgrass = assay: Test B flood test barnyardgrass; format: in vivo, Echinochloa crus-galli
# Method: as §1
# duck salad = assay: Test B flood test duck salad; format: in vivo, Heteranthera limosa
# Method: as §1
# rice = assay: Test B flood test rice; format: in vivo, Oryza sativa
# Summary of the method: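 Plants were grown to the 2-leaf stage before treatment with test chemical, then held in a greenhouse for twelve to sixteen days. Injury was visually rated against untreated controls on a 0–10 scale, where 0 is no effect and 10 is complete control.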
# wheat = assay: Test B pre/postemergence wheat; format: in vivo, Triticum aestivum
# Summary of the method: (§2)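 Herbicidal effect was estimated by eye on a ten-point control scale after plants spent twelve to sixteen days in a greenhouse following soil or foliar treatment. Foliar sprays targeted plants at one to four leaves; all doses were formulated in a non-phytotoxic solvent with surfactant.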
# wild oat = assay: Test B pre/postemergence wild oat; format: in vivo, Avena fatua
# Summary of the method: as §2
# giant foxtail = assay: Test B pre/postemergence giant foxtail; format: in vivo, Setaria faberii
# Summary of the method: as §2
# purple nutsedge = assay: Test B pre/postemergence purple nutsedge; format: in vivo, Cyperus rotundus
# Summary of the method: as §2
# crabgrass = assay: Test B pre/postemergence crabgrass; format: in vivo, Digitaria sanguinalis
# Summary of the method: as §2
# rape = assay: Test B pre/postemergence rape; format: in vivo, Brassica napus
# Summary of the method: as §2
# corn = assay: Test B pre/postemergence corn; format: in vivo, Zea mays
# Summary of the method: as §2
# blackgrass = assay: Test B pre/postemergence blackgrass; format: in vivo, Alopecurus myosuroides
# Summary of the method: as §2
# morningglory = assay: Test B pre/postemergence morningglory; format: in vivo, Ipomoea hederacea
# Summary of the method: as §2
# sugar beet = assay: Test B pre/postemergence sugar beet; format: in vivo, Beta vulgaris
# Summary of the method: as §2
# surinam grass = assay: Test B pre/postemergence surinam grass; format: in vivo, Brachiaria decumbens
# Summary of the method: as §2
# cocklebur = assay: Test B pre/postemergence cocklebur; format: in vivo, Xanthium strumarium
# Summary of the method: as §2
# soybean = assay: Test B pre/postemergence soybean; format: in vivo, Glycine max
# Summary of the method: as §2
# pigweed = assay: Test B pre/postemergence pigweed; format: in vivo, Amaranthus retroflexus
# Summary of the method: as §2
# velvetleaf = assay: Test B pre/postemergence velvetleaf; format: in vivo, Abutilon theophrasti
# Summary of the method: as §2
# bedstraw = assay: Test B pre/postemergence bedstraw; format: in vivo, Galium aparine; details: Preemergence
# Summary of the method: as §2
# [1] = Rate 62 g/ha, flood test species, Pre-emergence, visual evaluation after twelve to sixteen days
# [2] = Rate 125 g/ha, Pre-emergence section (flood test species), scale 0 to 10, 0 no effect, 10 complete control
# [3] = Rate 250 g/ha, Pre-emergence (flood test species), scale 0 to 10, 0 is no effect, 10 is complete control
# [4] = Rate 500 g/ha, Pre-emergence section of Table B, 0 to 10 scale (0 no effect, 10 complete control)
# [5] = Postemergence, Rate 62 g/ha, scale 0 to 10, 0 is no effect, 10 is complete control
# [6] = Preemergence, Rate 125 g/ha, scale of 0 to 10 where 0 is no effect and 10 is complete control
# [7] = Preemergence, Rate 250 g/ha, scale 0 (no effect) to 10 (complete control)
# [8] = Rate 62 g/ha, Preemergence, scale 0 to 10
# [9] = Rate 250 g/ha, Postemergence, scale 0 to 10, 0 is no effect, 10 is complete control
# [10] = Rate 500 g/ha, Postemergence, scale 0 to 10, 0 is no effect, 10 is complete control
# [11] = Rate 500 g/ha, Preemergence, scale 0 to 10 (0 no effect, 10 complete control)
# [12] = Postemergence, Rate 125 g/ha, scale of 0 to 10 where 0 is no effect and 10 is complete control
smiles,measurement,setting,value
CC(C)N(C(=O)n1oc(=O)n(C(C)C(=O)N2CCOCC2)c1=O)c1ccc(F)cc1 (stereo not shown) [Compound 705],"Plant response rating, S. Flatsedge (0 to 10 scale, 0 is no effect, 10 is complete control)",smallflower flatsedge; [1],0
same,S. Flatsedge plant response rating,smallflower flatsedge; [2],0
same,S. Flatsedge plant response rating,smallflower flatsedge; [3],0
same,S. Flatsedge plant response rating,smallflower flatsedge; [4],0
same,"Plant response rating, Barnyardgrass (0 to 10 scale, 0 is no effect, 10 is complete control)",bamyardgrass; [1],0
same,Barnyardgrass plant response rating,bamyardgrass; [2],0
same,Barnyardgrass plant response rating,bamyardgrass; [3],2
same,Barnyardgrass plant response rating,bamyardgrass; [4],2
same,"Plant response rating, Ducksalad (0 to 10 scale, 0 is no effect, 10 is complete control)",duck salad; [1],0
same,Ducksalad plant response rating,duck salad; [2],0
same,Ducksalad plant response rating,duck salad; [3],0
same,Ducksalad plant response rating,duck salad; [4],0
same,"Plant response rating, Rice (0 to 10 scale, 0 is no effect, 10 is complete control)",rice; [1],0
same,Rice plant response rating,rice; [2],1
same,Rice plant response rating,rice; [3],2
same,Rice plant response rating,rice; [4],2
COC1CCC(Cn2c(=O)on(C(=O)N(c3ccc(Cl)cc3)C(C)C)c2=O)=NO1 (stereo not shown) [Compound 760],"Plant response rating, Wheat",wheat; [5],0
same,"Plant response rating, Wheat",wheat; [6],0
same,Wheat plant response rating,wheat; [7],0
same,Wheat plant response rating,wheat; [8],0
same,Wheat plant response rating,wheat; [9],0
same,Wheat plant response rating,wheat; [10],0
same,Wheat plant response rating,wheat; [11],3
same,"Plant response rating, Wild oats",wild oat; [5],0
same,"Plant response rating, Wild oats",wild oat; [6],0
same,Wild oats plant response rating,wild oat; [7],2
same,Wild oats plant response rating,wild oat; [8],0
same,Wild oats plant response rating,wild oat; [9],0
same,Wild oats plant response rating,wild oat; [10],4
same,Wild oats plant response rating,wild oat; [11],6
same,"Plant response rating, Giant foxtail",giant foxtail; [5],0
same,Giant foxtail plant response rating,giant foxtail; [12],7
same,"Plant response rating, Giant foxtail",giant foxtail; [6],9
same,Giant foxtail plant response rating,giant foxtail; [7],10
same,Giant foxtail plant response rating,giant foxtail; [8],8
same,Giant foxtail plant response rating,giant foxtail; [9],7
same,Giant foxtail plant response rating,giant foxtail; [10],7
same,Giant foxtail plant response rating,giant foxtail; [11],10
same,"Plant response rating, Nutsedge",purple nutsedge; [5],0
same,Nutsedge plant response rating,purple nutsedge; [12],0
same,"Plant response rating, Nutsedge",purple nutsedge; [6],0
same,Nutsedge plant response rating,purple nutsedge; [7],0
same,Nutsedge plant response rating,purple nutsedge; [8],0
same,Nutsedge plant response rating,purple nutsedge; [9],0
same,Nutsedge plant response rating,purple nutsedge; [10],0
same,Nutsedge plant response rating,purple nutsedge; [11],0
same,"Plant response rating, Crabgrass",crabgrass; [5],5
same,Crabgrass plant response rating,crabgrass; [12],6
same,"Plant response rating, Crabgrass",crabgrass; [6],7
same,Crabgrass plant response rating,crabgrass; [7],10
same,Crabgrass plant response rating,crabgrass; [8],2
same,Crabgrass plant response rating,crabgrass; [9],9
same,Crabgrass plant response rating,crabgrass; [11],10
same,"Plant response rating, Rape",rape; [5],2
same,Rape plant response rating,rape; [12],1
same,"Plant response rating, Rape",rape; [6],0
same,Rape plant response rating,rape; [7],2
same,Rape plant response rating,rape; [8],0
same,Rape plant response rating,rape; [9],2
same,Rape plant response rating,rape; [10],5
same,Rape plant response rating,rape; [11],5
same,"Plant response rating, Corn",corn; [5],0
same,Corn plant response rating,corn; [12],0
same,"Plant response rating, Corn",corn; [6],0
same,Corn plant response rating,corn; [7],0
same,Corn plant response rating,corn; [8],0
same,Corn plant response rating,corn; [9],1
same,Corn plant response rating,corn; [10],1
same,Corn plant response rating,corn; [11],4
same,"Plant response rating, Blackgrass",blackgrass; [5],0
same,Blackgrass plant response rating,blackgrass; [12],0
same,"Plant response rating, Blackgrass",blackgrass; [6],4
same,Blackgrass plant response rating,blackgrass; [7],6
same,Blackgrass plant response rating,blackgrass; [8],0
same,Blackgrass plant response rating,blackgrass; [9],0
same,Blackgrass plant response rating,blackgrass; [10],3
same,Blackgrass plant response rating,blackgrass; [11],9
same,"Plant response rating, Morningglory",morningglory; [5],3
same,Morningglory plant response rating,morningglory; [12],3
same,"Plant response rating, Morningglory",morningglory; [6],0
same,Morningglory plant response rating,morningglory; [7],0
same,Morningglory plant response rating,morningglory; [8],0
same,Morningglory plant response rating,morningglory; [9],3
same,Morningglory plant response rating,morningglory; [10],3
same,Morningglory plant response rating,morningglory; [11],0
same,"Plant response rating, Sugarbeets",sugar beet; [5],0
same,"Plant response rating, Sugarbeets",sugar beet; [6],3
same,Sugarbeets plant response rating,sugar beet; [7],3
same,Sugarbeets plant response rating,sugar beet; [8],3
same,Sugarbeets plant response rating,sugar beet; [9],0
same,Sugarbeets plant response rating,sugar beet; [10],0
same,Sugarbeets plant response rating,sugar beet; [11],6
same,"Plant response rating, B. signalgrass",surinam grass; [5],0
same,B. signalgrass plant response rating,surinam grass; [12],0
same,B. signalgrass plant response rating,"surinam grass; Preemergence, Rate 62 g/ha, scale of 0 to 10 where 0 is no effect and 10 is complete control",2
same,"Plant response rating, B. signalgrass",surinam grass; [6],3
same,B. signalgrass plant response rating,surinam grass; [7],10
same,B. signalgrass plant response rating,surinam grass; [9],0
same,B. signalgrass plant response rating,surinam grass; [10],5
same,B. signalgrass plant response rating,surinam grass; [11],10
same,"Plant response rating, Cocklebur",cocklebur; [5],0
same,Cocklebur plant response rating,cocklebur; [12],0
same,Cocklebur plant response rating,cocklebur; [7],0
same,Cocklebur plant response rating,cocklebur; [8],0
same,Cocklebur plant response rating,cocklebur; [9],0
same,Cocklebur plant response rating,cocklebur; [10],1
same,Cocklebur plant response rating,cocklebur; [11],0
same,"Plant response rating, Soybean",soybean; [5],4
same,"Plant response rating, Soybean",soybean; [6],0
same,Soybean plant response rating,soybean; [7],0
same,Soybean plant response rating,soybean; [8],0
same,Soybean plant response rating,soybean; [9],4
same,Soybean plant response rating,soybean; [10],5
same,Soybean plant response rating,soybean; [11],0
same,"Plant response rating, Redroot pigweed",pigweed; [5],0
same,Redroot pigweed plant response rating,pigweed; [12],0
same,"Plant response rating, Redroot pigweed",pigweed; [6],7
same,Redroot pigweed plant response rating,pigweed; [7],9
same,Redroot pigweed plant response rating,pigweed; [8],7
same,Redroot pigweed plant response rating,pigweed; [9],2
same,Redroot pigweed plant response rating,pigweed; [10],3
same,Redroot pigweed plant response rating,pigweed; [11],9
same,"Plant response rating, Velvetleaf",velvetleaf; [5],0
same,"Plant response rating, Velvetleaf",velvetleaf; [6],0
same,Velvetleaf plant response rating,velvetleaf; [7],0
same,Velvetleaf plant response rating,velvetleaf; [8],0
same,Velvetleaf plant response rating,velvetleaf; [9],0
same,Velvetleaf plant response rating,velvetleaf; [10],3
same,Velvetleaf plant response rating,velvetleaf; [11],0
same,"Plant response rating, Bedstraw","bedstraw; Rate 125 g/ha, scale of 0 to 10 where 0 is no effect and 10 is complete control",0
same,Bedstraw plant response rating,"bedstraw; Rate 250 g/ha, scale 0 (no effect) to 10 (complete control)",0
same,Bedstraw plant response rating,"bedstraw; Rate 62 g/ha, scale 0 to 10",0
same,Bedstraw plant response rating,"bedstraw; Rate 500 g/ha, scale 0 to 10 (0 no effect, 10 complete control)",6

# Reference: patent US6737383B1, “Herbicidal oxadiazolidines” (priority 1999, dated 2004)
